Data as given in ChEMBL document CHEMBL1129223, “1-Oxo-3-aryl-1H-indene-2-carboxylic acid derivatives as selective inhibitors of fibroblast growth factor receptor-1 tyrosine kinase” (Bioorg Med Chem Lett, 1997).

Columns and labels:
[1] = target: Platelet-derived growth factor receptor (Homo sapiens) (UniProt P09619+P16234); assay: Inhibitory activity against platelet-derived growth factor receptor (PDGFr) at 50 uM
[2] = target: T1, Proto-oncogene tyrosine-protein kinase Src (Homo sapiens, UniProt P12931); assay: Inhibitory activity against c-src tyrosine kinase at 50 uM
[3] = target: T2, Fibroblast growth factor receptor (Homo sapiens, UniProt P22607+P11362+P22455+P21802); assay: Inhibitory activity against fibroblast growth factor receptor (FGFr) at 50 uM; assay type: protein assay
[4] = target: T1, Proto-oncogene tyrosine-protein kinase Src; assay: Inhibitory activity against c-src tyrosine kinase
[5] = target: T2, Fibroblast growth factor receptor; assay: Inhibitory activity against fibroblast growth factor receptor (FGFr); assay type: protein assay

T1 sequence (P12931 2-536 limits assumed): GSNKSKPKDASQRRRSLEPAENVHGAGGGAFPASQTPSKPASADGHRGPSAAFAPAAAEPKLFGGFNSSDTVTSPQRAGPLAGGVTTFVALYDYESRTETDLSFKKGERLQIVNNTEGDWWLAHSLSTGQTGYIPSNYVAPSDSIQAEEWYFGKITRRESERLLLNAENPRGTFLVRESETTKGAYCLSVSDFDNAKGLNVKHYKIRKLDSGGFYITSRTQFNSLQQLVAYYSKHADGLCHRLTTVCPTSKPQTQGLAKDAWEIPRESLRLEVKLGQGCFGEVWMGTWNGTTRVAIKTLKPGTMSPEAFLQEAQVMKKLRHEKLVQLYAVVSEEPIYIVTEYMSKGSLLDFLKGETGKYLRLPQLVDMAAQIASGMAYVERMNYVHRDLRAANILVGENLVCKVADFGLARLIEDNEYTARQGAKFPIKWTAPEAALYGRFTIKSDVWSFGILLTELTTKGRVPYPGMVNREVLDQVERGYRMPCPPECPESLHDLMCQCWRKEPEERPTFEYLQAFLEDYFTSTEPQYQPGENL
T2 sequence (P11362 whole entry, looked up): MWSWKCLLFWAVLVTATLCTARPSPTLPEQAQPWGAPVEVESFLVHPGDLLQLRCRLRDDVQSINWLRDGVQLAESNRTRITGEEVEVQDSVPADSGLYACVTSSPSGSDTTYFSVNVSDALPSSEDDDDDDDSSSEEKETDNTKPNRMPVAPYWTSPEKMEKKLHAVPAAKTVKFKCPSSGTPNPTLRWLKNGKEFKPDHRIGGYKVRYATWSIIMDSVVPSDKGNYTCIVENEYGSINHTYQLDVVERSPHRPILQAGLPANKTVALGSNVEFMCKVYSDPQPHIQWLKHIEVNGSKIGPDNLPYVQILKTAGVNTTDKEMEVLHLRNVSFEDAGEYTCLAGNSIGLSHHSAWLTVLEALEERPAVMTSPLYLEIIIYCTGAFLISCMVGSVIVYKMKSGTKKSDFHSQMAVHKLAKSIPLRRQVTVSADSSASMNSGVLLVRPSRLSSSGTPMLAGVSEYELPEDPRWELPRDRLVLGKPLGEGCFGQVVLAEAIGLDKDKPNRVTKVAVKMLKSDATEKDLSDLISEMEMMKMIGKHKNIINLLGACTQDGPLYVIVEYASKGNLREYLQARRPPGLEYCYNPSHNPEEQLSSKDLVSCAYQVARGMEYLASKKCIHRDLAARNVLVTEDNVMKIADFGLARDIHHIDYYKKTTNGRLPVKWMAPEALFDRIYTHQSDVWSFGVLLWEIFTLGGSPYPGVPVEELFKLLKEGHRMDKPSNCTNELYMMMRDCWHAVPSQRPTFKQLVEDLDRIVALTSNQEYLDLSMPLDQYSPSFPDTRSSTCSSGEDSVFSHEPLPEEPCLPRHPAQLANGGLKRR
T2 sequence (P21802 whole entry, looked up): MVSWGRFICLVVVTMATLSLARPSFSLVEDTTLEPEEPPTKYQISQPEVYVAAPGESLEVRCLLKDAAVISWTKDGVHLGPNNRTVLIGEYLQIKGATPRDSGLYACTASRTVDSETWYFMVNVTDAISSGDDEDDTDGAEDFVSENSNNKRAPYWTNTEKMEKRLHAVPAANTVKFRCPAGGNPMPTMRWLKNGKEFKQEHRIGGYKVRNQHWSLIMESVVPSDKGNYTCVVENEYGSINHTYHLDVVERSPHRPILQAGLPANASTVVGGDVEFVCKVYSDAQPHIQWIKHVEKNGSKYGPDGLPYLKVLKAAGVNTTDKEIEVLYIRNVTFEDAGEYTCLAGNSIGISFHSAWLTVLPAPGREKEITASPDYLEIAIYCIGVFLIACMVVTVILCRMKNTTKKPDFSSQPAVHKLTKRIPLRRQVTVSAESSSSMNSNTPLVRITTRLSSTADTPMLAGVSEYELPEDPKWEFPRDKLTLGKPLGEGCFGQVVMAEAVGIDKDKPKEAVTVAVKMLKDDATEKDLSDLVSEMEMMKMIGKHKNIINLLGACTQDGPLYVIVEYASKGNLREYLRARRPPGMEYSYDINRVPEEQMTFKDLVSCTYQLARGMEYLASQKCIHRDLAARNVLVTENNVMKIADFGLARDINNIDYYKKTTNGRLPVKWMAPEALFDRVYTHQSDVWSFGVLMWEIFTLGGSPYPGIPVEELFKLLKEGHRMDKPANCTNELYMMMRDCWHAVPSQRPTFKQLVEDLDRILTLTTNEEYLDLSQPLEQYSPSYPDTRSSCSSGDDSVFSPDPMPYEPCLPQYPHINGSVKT
T2 sequence (P22455 whole entry, looked up): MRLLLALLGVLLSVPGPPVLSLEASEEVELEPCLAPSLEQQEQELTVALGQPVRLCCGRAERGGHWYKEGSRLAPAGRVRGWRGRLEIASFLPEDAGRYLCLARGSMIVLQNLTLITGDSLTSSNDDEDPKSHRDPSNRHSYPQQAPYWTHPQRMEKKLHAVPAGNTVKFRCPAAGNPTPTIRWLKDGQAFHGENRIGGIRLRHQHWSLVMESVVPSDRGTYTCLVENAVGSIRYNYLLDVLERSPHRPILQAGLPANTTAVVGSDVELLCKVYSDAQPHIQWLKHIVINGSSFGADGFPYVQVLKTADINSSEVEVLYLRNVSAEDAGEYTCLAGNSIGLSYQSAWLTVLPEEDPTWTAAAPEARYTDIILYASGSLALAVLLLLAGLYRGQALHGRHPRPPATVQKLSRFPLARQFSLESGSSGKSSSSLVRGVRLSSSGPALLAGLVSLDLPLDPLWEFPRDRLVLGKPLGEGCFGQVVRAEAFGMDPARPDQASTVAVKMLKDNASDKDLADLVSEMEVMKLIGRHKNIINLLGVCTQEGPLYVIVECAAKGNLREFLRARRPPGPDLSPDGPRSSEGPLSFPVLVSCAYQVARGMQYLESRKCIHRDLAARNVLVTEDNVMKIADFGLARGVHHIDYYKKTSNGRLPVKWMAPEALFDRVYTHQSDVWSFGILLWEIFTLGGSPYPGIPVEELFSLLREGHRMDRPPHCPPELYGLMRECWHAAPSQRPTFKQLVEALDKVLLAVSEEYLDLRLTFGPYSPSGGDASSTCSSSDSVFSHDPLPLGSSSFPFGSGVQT
T2 sequence (P22607 whole entry, looked up): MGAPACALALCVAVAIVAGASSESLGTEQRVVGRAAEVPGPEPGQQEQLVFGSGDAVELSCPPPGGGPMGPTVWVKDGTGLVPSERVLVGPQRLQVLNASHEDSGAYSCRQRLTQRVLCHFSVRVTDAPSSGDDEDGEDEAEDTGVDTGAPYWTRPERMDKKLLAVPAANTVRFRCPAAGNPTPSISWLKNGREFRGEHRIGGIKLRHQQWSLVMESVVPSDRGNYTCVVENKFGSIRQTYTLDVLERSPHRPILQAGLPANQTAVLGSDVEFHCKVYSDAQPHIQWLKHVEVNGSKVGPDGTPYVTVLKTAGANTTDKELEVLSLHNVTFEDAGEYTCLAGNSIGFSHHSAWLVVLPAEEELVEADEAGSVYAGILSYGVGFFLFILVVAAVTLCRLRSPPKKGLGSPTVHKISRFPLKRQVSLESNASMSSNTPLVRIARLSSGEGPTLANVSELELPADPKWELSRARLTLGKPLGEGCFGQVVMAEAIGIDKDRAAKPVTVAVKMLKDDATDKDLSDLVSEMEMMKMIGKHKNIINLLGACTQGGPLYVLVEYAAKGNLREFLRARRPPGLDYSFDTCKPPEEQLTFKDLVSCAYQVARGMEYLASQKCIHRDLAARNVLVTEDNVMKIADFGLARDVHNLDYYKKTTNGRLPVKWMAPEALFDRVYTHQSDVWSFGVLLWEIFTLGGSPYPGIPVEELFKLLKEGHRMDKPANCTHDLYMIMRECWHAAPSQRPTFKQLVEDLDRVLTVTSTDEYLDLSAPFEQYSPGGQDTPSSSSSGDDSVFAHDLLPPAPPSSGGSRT

| inhibition [1] [%] | inhibition [2] [%] | inhibition [3] [%] | IC50 [4] [µM] | IC50 [5] [µM] | SMILES |
| --- | --- | --- | --- | --- | --- |
| 10 | 1 | 10 |  |  | CN(C)C(=O)C1=C(c2ccccc2)c2ccccc2C1=O |
| 27 |  |  | 9.6 | 5.4 | NC(=O)C1=C(c2ccc(Cl)cc2)c2ccccc2C1=O |
| 8 | 11 | 21 |  |  | CCN(CC)CCNC(=O)C1=C(c2ccccc2)c2ccccc2C1=O |
| 8.7 | 53 |  |  | 9.2 | CCC1=C(C(N)=O)C(=O)c2ccccc21 |
| 19 |  |  | 25 | 5.1 | COC(=O)C1=C(c2ccccc2)c2ccccc2C1=O |
| 27 |  |  | 7.6 | 6.8 | COC(=O)C1=C(c2ccccc2)c2ccncc2C1=O |
| 19 |  |  | 13 | 15 | COC(=O)C1=C(c2ccccc2)c2c(OC)cccc2C1=O |
| 24 | 16 |  |  | 21 | CNC(=O)C1=C(c2ccccc2)c2ccccc2C1=O |
| 10 | 27 | 29 |  |  | NC(=O)C1=C(c2ccccc2)c2ccccc2C1O (configuration not stated) |
| 23 |  |  | 4 | 10.6 | COc1ccc(C2=C(C(N)=O)C(=O)c3ccccc32)cc1 |
| 25 | 10 |  |  | 6.2 | COC(=O)C1=C(c2ccccc2)c2cc(Cl)ccc2C1=O.COC(=O)C1=C(c2ccccc2)c2ccc(Cl)cc2C1=O |
| 19 |  |  | 8.3 | 10 | COC(=O)C1=C(c2ccccc2)c2cc([N+](=O)[O-])ccc2C1=O.COC(=O)C1=C(c2ccccc2)c2ccc([N+](=O)[O-])cc2C1=O |
| 16 | 8 | 23 |  |  | NC(=O)C1C(=O)c2ccccc2C1c1ccccc1 (configuration not stated) |
| 20 |  |  | 33 | 6.4 | COC(=O)C1=C(c2ccccc2)c2cc(C)ccc2C1=O.COC(=O)C1=C(c2ccccc2)c2ccc(C)cc2C1=O |
| 25 |  |  | 3.6 | 4.7 | NC(=O)C1=C(c2ccccc2)c2ccccc2C1=O |
| 11 | 38 |  |  | 44 | COC(=O)C1=C(c2ccccc2)c2cccc(C)c2C1=O |
| 25 | 48 |  |  | 4.2 | NC(=O)C1=C2CCCc3cccc(c32)C1=O |
| 9 | 7 |  |  | 25 | O=C(O)C1=C(c2ccccc2)c2ccccc2C1=O |
| 8 | 3 | 26 |  |  | C/C=C1\c2ccccc2C(=O)C1C(N)=O (configuration not stated) |
